The text below walks through data of patent US20160046592A1, “PHARMACEUTICAL COMPOSITION FOR THE TREATMENT OF DIABETES” (Ajinomoto Co., Inc., priority 2013, published 2016).

SMILES strings stand for the structures. Where a name gives a salt, the structure may show the parent alone.

The assay has as its target T1, human GYS1 (glycogen synthase) (Homo sapiens, UniProt P13807).
T1 construct: made in house; host or cells: HEK293T
T1 sequence (P13807 1-737): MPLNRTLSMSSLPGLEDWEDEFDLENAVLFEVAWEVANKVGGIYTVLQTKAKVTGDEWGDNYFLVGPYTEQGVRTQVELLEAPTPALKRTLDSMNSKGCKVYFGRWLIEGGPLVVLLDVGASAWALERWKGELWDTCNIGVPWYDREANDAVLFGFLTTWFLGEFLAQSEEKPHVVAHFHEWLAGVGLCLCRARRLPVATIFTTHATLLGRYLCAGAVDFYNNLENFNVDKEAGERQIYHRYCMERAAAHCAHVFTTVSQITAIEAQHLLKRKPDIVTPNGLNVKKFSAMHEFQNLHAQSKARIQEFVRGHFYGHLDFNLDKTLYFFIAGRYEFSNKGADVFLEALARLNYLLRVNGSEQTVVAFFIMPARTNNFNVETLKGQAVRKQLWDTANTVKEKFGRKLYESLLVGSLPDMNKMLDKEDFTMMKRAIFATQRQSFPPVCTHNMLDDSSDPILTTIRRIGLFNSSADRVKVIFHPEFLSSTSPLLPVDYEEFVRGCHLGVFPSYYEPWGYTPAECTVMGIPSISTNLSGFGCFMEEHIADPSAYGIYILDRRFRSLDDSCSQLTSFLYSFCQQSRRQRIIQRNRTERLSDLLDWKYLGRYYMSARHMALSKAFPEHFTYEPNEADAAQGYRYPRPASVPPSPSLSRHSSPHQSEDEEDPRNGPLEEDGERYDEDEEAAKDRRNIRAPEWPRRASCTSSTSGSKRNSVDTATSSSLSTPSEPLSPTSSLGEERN
As to the kind of experiment: Measurement of glycogen synthase activity. The class given is biochemical. Particulars: concentration causing 50% increase in relative activity; 100% = compound of Example 1 of WO/2011/058154 at 10 μM; 10 mM Glucose-6-phosphate; 37° C. for 25 minutes (Examples 1 to 61 and 67 to 82) or 20 minutes (Examples 62 to 66); absorbance at 340 nm. The procedure:
A human GYS1 expression plasmid (pCDNA3.1(+)-hGYS1) was constructed by the following method. By using a human skeletal muscle cDNA of Human MTC Panel I (Takara Bio Inc., 636742) as a template, a human GYS1 gene was amplified by a PCR method using cloning primers (Forward Primer: ATGCCTTTAAACCGCAC, Reverse Primer: TTAGTTACGCTCCTCGC). By using the amplified human GYS1 sequence as a template, restriction enzyme sequences were added by a PCR method using sub-cloning primers (Forward Primer: […], and Reverse Primer: […]), and then the human GYS1 gene was introduced between Xho I and Xba I sites of pCDNA3.1(+) (Invitrogen, V790-20).
Glycogen synthase was prepared by the following method. Human kidney-derived HEK293T cells were seeded in a dish (Thermo Fisher Scientific K.K., 168381) by using a 10% FBS-containing DMEM (Nacalai Tesque, Inc., 0845874) medium, and cultured overnight. Then, by using Lipofectamine LTX (Invitrogen, 15338-100), the cells were transfected with the human GYS1 expression vector according to the attached manual. After culturing under conditions of 37° C. and 5% CO2 for 2 days, the resultant was lysed in a lysis buffer (50 mM Tris-HCl (pH 8.0), 10 mM EDTA, 2 mM EGTA, 100 mM NaF, 1 mM PMSF, 1 mM DTT, and 1× Complete (Roche, 1873580)), homogenized, and then centrifuged at 16000×g at 4° C. for 15 minutes. The precipitated fraction re-dissolved by adding the lysis buffer was used as a glycogen synthase for evaluation.
The glycogen synthase activity was measured by the following method. To a polystyrene 96-well plate, solutions each containing 30 mM glycylglycine (pH 7.3), 40 mM KCl, 20 mM MgCl2, 9.2% DMSO containing one of the test compounds at one of various concentrations, and 10 mM Glucose-6-phosphate (Sigma-Aldrich, G7879) were added at 12 μL/well.
Next, a substrate solution containing 30 mM glycylglycine (pH 7.3), 4.3 mg/mL glycogen (Sigma-Aldrich, G8876), 21.6 mM UDP-glucose (Sigma-Aldrich, U4625), 21.6 mM phosphoenolpyruvic acid (Sigma-Aldrich, P0564), and 4.05 mM NADH (Sigma-Aldrich, N8129) was added at 18 μL/well.
Moreover, an enzyme solution containing 50 mM Tris-HCl (pH 8.0), 27 mM DTT (NACALAI TESQUE, INC., 14128-04), 0.2 mg/mL bovine serum albumin, 0.17 mg/mL glycogen synthase, and 1.5 μL pyruvate kinase/lactate dehydrogenase solution (Sigma-Aldrich, P0294) was added at 18 μL/well to prepare reaction solutions. After the reaction solutions were incubated (at 37° C. for 25 minutes for Examples 1 to 61 and 67 to 82 or at 37° C. for 20 minutes for Examples 62 to 66), the absorbance at 340 nm was measured by using Benchmark Plus (Bio-Rad Laboratories, Inc.).
The activity of each test compound was calculated by the following method. The absorbance at 340 nm of the reaction solution containing the compound and DMSO was subtracted from the absorbance at 340 nm of a reaction solution not containing the compound but containing only DMSO to calculate the change (ΔA340) in absorbance. The relative activity (%) of the test compound at each of the various concentrations was calculated, where the ΔA340 of a reaction solution containing the compound of Example 1 of WO/2011/058154 at a final concentration of 10 μM was taken as 100%. EC50 representing the concentration of the compound at which an increase in the relative activity by 50% was caused was calculated using XLfit (idbs).
Molecule `O=C(O)CN(C(=O)c1cccc(COc2ccc(-c3cc(F)c(F)c4ccoc34)cc2)c1)C1CCNC1=O` (stereo not shown) [Example 82, 2-[[3-[[4-(4,5-Difluorobenzofuran-7-yl)phenoxy]methyl]benzoyl]-(2-oxopyrrolidin-3-yl)amino]acetic Acid] yielded an EC50 of 19 nM.

`CSc1cc(F)c(F)cc1-c1ccc(OCc2cccc(C(=O)N(CC(N)=O)CC(=O)O)c2)cc1` [Example 10, 2-[(2-Amino-2-oxo-ethyl)-[3-[[4-(4,5-difluoro-2-methylsulfanyl-phenyl)phenoxy]methyl]benzoyl]amino]acetic Acid] yielded an EC50 of 7.2 nM.

As for `Cc1coc2c(-c3ccc(OCc4cccc(C(=O)N(CCS(C)(=O)=O)CC(=O)O)c4)cc3)cc(F)c(F)c12` [Example 14, 2-[[3-[[4-(4,5-Difluoro-3-methyl-benzofuran-7-yl)phenoxy]methyl]benzoyl]-(2-methylsulfonylethyl)amino]acetic Acid], the EC50 turned out to be 15 nM.

Consider `CSc1cc(F)c(F)cc1-c1ccc(OCc2cccc(C(=O)N(CCN3CCS(=O)(=O)CC3)CC(=O)O)c2)cc1` [Example 41, 2-[[3-[[4-(4,5-Difluoro-2-methylsulfanyl-phenyl)phenoxy]methyl]benzoyl]-[2-(1,1-dioxo-1,4-thiazinan-4-yl)ethyl]amino]acetic Acid Trifluoroacetate], for which the EC50 is 21 nM.

`CSc1cc(F)c(F)cc1-c1ccc(OCc2cccc(C(=O)N(CCS(N)(=O)=O)CC(=O)O)c2)cc1` [Example 51, 2-[[3-[[4-(4,5-Difluoro-2-methylsulfanyl-phenyl)phenoxy]methyl]benzoyl]-(2-sulfamoylethyl)amino]acetic Acid] gave an EC50 of 5.2 nM.

Molecule `CSc1cc(F)c(F)cc1-c1ccc(OCc2cccc(C(=O)N(CC(=O)O)CC(=O)O)c2)cc1` [Example 27, 2-[Carboxymethyl-[3-[[4-(4,5-difluoro-2-methylsulfanyl-phenyl)phenoxy]methyl]benzoyl]amino]acetic Acid] had an EC50 of 10 nM.

In the case of `CSc1cc(F)c(F)cc1-c1ccc(OCc2cccc(C(=O)N(CCC(C)O)CC(=O)O)c2)cc1` (stereo not shown) [Example 21, 2-[[3-[[4-(4,5-Difluoro-2-methylsulfanyl-phenyl)phenoxy]methyl]benzoyl]-(3-hydroxybutyl)amino]acetic Acid], the EC50 stood at 15 nM.

As to `CSc1cc(F)c(F)cc1-c1ccc(OCc2cccc(C(=O)N3C[C@H](O)C[C@H]3C(=O)O)c2)cc1` [Example 29, (2S,4R)-1-[3-[[4-(4,5-Difluoro-2-methylsulfanyl-phenyl)phenoxy]methyl]benzoyl]-4-hydroxy-pyrrolidine-2-carboxylic Acid], the EC50 was determined as 19 nM.

`CSc1cc(F)c(F)cc1-c1ccc(OCc2cccc(C(=O)N(CC(=O)O)CC3CCNCC3)c2)cc1` [Example 35, 2-[[3-[[4-(4,5-Difluoro-2-methylsulfanyl-phenyl)phenoxy]methyl]benzoyl]-(4-piperidylmethyl)amino]acetic Acid Trifluoroacetate]: the EC50 turned out to be 19 nM.

In turn, `CSc1cc(F)c(F)cc1-c1ccc(OCc2cccc(C(=O)N(CC(=O)O)CC3CCS(=O)(=O)C3)c2)cc1` (stereo not shown) [Example 46, 2-[[3-[[4-(4,5-Difluoro-2-methylsulfanyl-phenyl)phenoxy]methyl]benzoyl]-[(1,1-dioxothiolan-3-yl)methyl]amino]acetic Acid] gave an EC50 of 25 nM.

For the molecule `O=C(O)[C@@H]1[C@H](O)CCN1C(=O)c1cccc(COc2ccc(-c3cc(F)c(F)c4ccoc34)cc2)c1` [Example 3, (2S,3R)-1-[3-[[4-(4,5-Difluorobenzofuran-7-yl)phenoxy]methyl]benzoyl]-3-hydroxy-pyrrolidine-2-carboxylic Acid], the EC50 was found to be 16 nM.

The molecule `CSc1cc(F)c(F)cc1-c1ccc(OCc2cccc(C(=O)N3[C@@H](CO)CC[C@H]3C(=O)O)c2)cc1` [Example 64, (2S,5R)-1-[3-[[4-(4,5-Difluoro-2-methylsulfanyl-phenyl)phenoxy]methyl]benzoyl]-5-(hydroxymethyl)pyrrolidine-2-carboxylic Acid] yielded an EC50 of 22 nM.

In turn, `COCCOCCN(CC(=O)O)C(=O)c1cccc(COc2ccc(-c3cc(F)c(F)cc3SC)cc2)c1` [Example 49, 2-[[3-[[4-(4,5-Difluoro-2-methylsulfanyl-phenyl)phenoxy]methyl]benzoyl]-[2-(2-methoxyethoxy)ethyl]amino]acetic Acid] showed an EC50 of 9.5 nM.

As for `COC1CCN(C(=O)c2cccc(COc3ccc(-c4cc(F)c(F)cc4SC)cc3)c2)C1C(=O)O` (stereo in doubt) [Example 33, (2S,3S)-1-[3-[[4-(4,5-Difluoro-2-methylsulfanyl-phenyl)phenoxy]methyl]benzoyl]-3-methoxy-pyrrolidine-2-carboxylic Acid], the EC50 came out at 21 nM.

Molecule `CSc1cc(F)c(F)cc1-c1ccc(OCc2cccc(C(=O)N(CC(=O)O)[C@@H](C)C(N)=O)c2)cc1` [Example 22, 2-[[(1S)-2-Amino-1-methyl-2-oxo-ethyl]-[3-[[4-(4,5-difluoro-2-methylsulfanyl-phenyl)phenoxy]methyl]benzoyl]amino]acetic Acid] showed an EC50 of 13 nM.

Molecule `CS(=O)(=O)CCN(CC(=O)O)C(=O)c1cccc(COc2ccc(-c3cc(F)c(F)c4ccoc34)cc2)c1` [Example 8, 2-[[3-[[4-(4,5-Difluorobenzofuran-7-yl)phenoxy]methyl]benzoyl]-(2-methylsulfonylethyl)amino]acetic Acid] gave an EC50 of 15 nM.

In the case of `COC(C)CN(CC(=O)O)C(=O)c1cccc(COc2ccc(-c3cc(F)c(F)cc3SC)cc2)c1` (stereo not shown) [Example 45, 2-[[3-[[4-(4,5-Difluoro-2-methylsulfanyl-phenyl)phenoxy]methyl]benzoyl]-(2-methoxypropyl)amino]acetic Acid], the EC50 amounted to 7.7 nM.

As for `COC[C@H](C)N(CC(=O)O)C(=O)c1cccc(COc2ccc(-c3cc(F)c(F)c4ccoc34)cc2)c1` [Example 80, 2-[[3-[[4-(4,5-Difluorobenzofuran-7-yl)phenoxy]methyl]benzoyl]-[(1S)-2-methoxy-1-methyl-ethyl]amino]acetic Acid], the EC50 stood at 24 nM.

For the molecule `CSc1cc(F)c(F)cc1-c1ccc(OCc2cccc(C(=O)N3C(CC#N)CC[C@H]3C(=O)O)c2)cc1` (stereo partly drawn) [Example 72, (2S)-5-(Cyanomethyl)-1-[3-[[4-(4,5-difluoro-2-methylsulfanyl-phenyl)phenoxy]methyl]benzoyl]pyrrolidine-2-carboxylic Acid], the EC50 turned out to be 11 nM.
